Experimental data taken from the NIST ThermoML archive (doi:10.1016/j.fluid.2006.07.007).

Details: Liquid, Ebulliometric method (Recirculating still)

CCO [ethanol]
Details | vapor or sublimation pressure [kPa]
292.33 K | 5.593
303.83 K | 10.86
311.14 K | 16.15
317.9 K | 22.84
323.09 K | 29.41
326.8 K | 35.11
330.56 K | 41.76
333.94 K | 48.61
337.18 K | 56.06
339.97 K | 63.2
342.3 K | 69.73
